These results are taken from US8946291B2, “Compositions and methods for treating pigmentary conditions and melanoma” (The United States of America, as represented by the …, priority 2008, dated 2015).

Assay [1] has as its system SOX9. Nature of the assay: SOX9 protein expression in normal human melanocytes (metabolic labeling, immunoblotting, immunocytochemistry). Format: cell-based. The note with it: for SOX9 regulation in human melanocytes: statement in the discussion. The protocol: Cultures in 100 mm dishes were solubilized in […] mammalian protein extraction reagent (Pierce Biotechnology, Rockford, Ill., USA) and Protease Inhibitor cocktail (Roche, Mannheim, Germany). Protein concentrations of extracts were measured using the BCA protein assay kit (Pierce, Rockford, Ill., USA). Cell extracts (20 μg) were separated on 8-16% gradient SDS polyacrylamide gels (Invitrogen). After electrophoresis, proteins were transferred electrophoretically from the gels to Invitrolon PVDF transfer membranes (Invitrogen). The filters were incubated with antibodies to SOX9 (rabbit 1:500; Abeam, Cambridge, UK), SOX10 (goat 1:200; Santa Cruz, Santa Cruz, Calif., USA), DCT (1:2,000; (22)), Tyrosinase (rabbit 1:10,000; (22)), or GAPDH (rabbit 1:10,000, Santa Cruz) for 1 h at 23° C. to overnight at 4° C. (depending on the antibody) and were then incubated with horseradish peroxidase-linked anti-rabbit, anti-mouse or anti-goat whole antibodies (at 1:1,0000, GE Healthcare, Buckinghamshire, UK) at room temperature for 1 h. Antigens were detected using ECL-plus Western Blotting Detection System (GE Healthcare). Blots were quantitated using Scion Image Software (Scion Corp., Frederick, Md., USA). Each experiment was performed at least in triplicate.
Melanocyte cultures in two well Lab-Tek chamber slides (Nalge Nune International Corp., Naperville, Ill., USA) were processed for indirect fluorescence to detect the expression of proteins using primary antibodies to SOX9 (rabbit 1:50, Abcam), MITF-ab3 (mouse 1:100 dilution; NeoMarkers, Fremont, Calif., USA), DCT (rabbit 1:7,500; (22)) and Tyrosinase (rabbit 1:700; (22)). Bound antibodies were visualized with appropriate secondary antibodies, Alexa Fluor® 488 goat anti-rabbit IgG (H+L) (Molecular Probes, Inc., Eugene, Oreg., USA), Alexa Fluor® 594 mouse anti-rabbit IgG (H+L) (Molecular Probes), Alexa Fluor® 488 goat anti-mouse IgG (H+L) (Molecular Probes) or Alexa Fluor® 594 goat anti-mouse IgG (H+L) (Molecular Probes) at 37° C. for 30 min at 1:500 dilution with 5% goat serum. DAPI (Vector, Burlingame, Calif.; USA) was used as a counter-stain. The green fluorescence produced by Alexa 488®, red produced by Alexa 594®, and blue by DAPI was observed and captured using a Leica DMR B/D MLD fluorescence microscope (Leica, Wetzlar, Germany) and a Dage-MTI 3CCD 3-chip color video camera (Dage-MTI, Michigan City, Ind., USA).
Radioactive metabolic labeling and immunoprecipitation was performed as described previously (58). Where indicated, cells were irradiated with 21 mJ/cm^2 UVB and/or chemical agents were added from the “pulse” period to the “chase” period. Cell extracts were incubated with normal rabbit serum (Vector, Burlingame, Calif., USA) and were then incubated with protein G beads (GE Healthcare). The supernatants were incubated with SOX9 (Abcam) or GAPDH (Santa-Cruz) antibodies. The immune-complexes were separated by incubation with beads and were further washed with immunoprecipitate lysis buffer. The pellets were eluted, electrophoresed and visualized by autoradiography.
For orientation: A western blot detects proteins with antibodies after separation by electrophoresis.

The subject of assay [2] is SOX9. The settings on record: by promoting phosphorylation and nuclear translocation, literature (13); cited from earlier work.
The test system of assay [3] is SOX9. Nature of the assay: SOX9 expression in A375 cells (S35 labeling and immunoprecipitation / immunoblotting). The note with it: A375 cells treated with PGD2 for 72 h. Format: cell-based, human. As for the experimental part: (§1) SOX9 has been extensively studied in chondrocytes due to its key role for collagen II synthesis. […] First, S35 labeling was performed on A375 cells treated or not treated with PGD2 for 72 h. Proteins were then extracted and immunoprecipitated with SOX9 and PRAME antibodies (GAPDH was used as a control). SOX9 was increased after treatment with PGD2 whereas PRAME was decreased (FIG. 3B). […] A further proliferation assay with or without RA treatment, using PGD2 instead of the transfection with SOX9, was performed.
(§2) Cells were solubilized in M-PER® mammalian protein extraction reagent (Pierce Biotechnology, Rockford, Ill., USA) containing Protease Inhibitor cocktail (Roche, Mannheim, Germany). Protein concentrations of extracts were measured using the BCA protein assay kit (Pierce, Rockford, Ill., USA). Cell extracts (30 μg) were separated on SDS polyacrylamide gels (Invitrogen). After electrophoresis, proteins were transferred electrophoretically from the gels to Invitrolon PVDF transfer membranes (Invitrogen). […] Antigens were detected using ECL-plus Western Blotting Detection System (GE Healthcare). […]

The next assay has as its system melanoma cells. The settings on record: literature (14-17); cited from earlier work.
A further assay concerns PRAME. Nature of the assay: PRAME expression in melanoma cells (immunoprecipitation / immunoblotting). Format: cell-based, human. The note with it: A375 cells treated with PGD2 for 72 h. As for the experimental part:
as §1, §2

The next assay concerns A375 cells. Kind of assay: Proliferation assay (crystal violet) in A375 melanoma cells. Format: cell-based, human. The protocol: B16/F10 melanoma cells, SKMel 28 and A375 cells were obtained from the ATCC (Manassas, Va., USA). Mel Juso cells are a generous gift from Dr. Hornyak at the National Cancer Institute. A375, SK Mel 28 and B16 cells were grown at 37° C. under 5% CO2 in DMEM supplemented with 7% Fetal Bovine Serum (FBS) and penicillin (100 U/ml) and streptomycin (50 ug/ml). Mel Juso cells were grown at 37° C. under 5% CO2 in RPMI medium supplemented with 10% FBS and penicillin (100 U/ml) and streptomycin (50 ug/ml). Retinoic acid (10^−7M) and Prostaglandin D2 (0.5 ug/ml) were purchased from Sigma-Aldrich (St-Louis, Mo., USA).
The cells were transfected with a pBabe vector to give them a resistance to puromycin. At the same time, they were transfected with SOX9 cDNA or empty vector as control. Depending on the experiment, cells were also transfected the day after with SiRNA p21 or SiRNA Mock. After 10 to 15 d, the clones were fixed and stained with crystal violet. Proliferation was measured according to the optical density of the color.

For the next assay, the system named is TYR promoter. Nature of the assay: Luciferase assay of TYR promoter in HeLa cells. Format: cell-based, human. The settings on record: forskolin (data not shown). The protocol: (§3) B16 melanoma cells or HeLa cells were seeded in 24-well dishes and were transfected with 0.3 μg of the luciferase reporter plasmid and 0.05 μg of pCMVβGal (Promega, Madison, Wis., USA) to control the variability of transfection efficiency. In some experiments, SOX9 was over-expressed using 0.1 μg of the pcDNA3 encoding SOX9, or was silenced with SOX9 siRNA (100 nM). Empty pcDNA3 or siRNA scrambles were used as controls depending on the experiments. All transfections were made with Lipofectamine (Invitrogen) according to the instructions of the manufacturer. Thirty-six h later, cells were washed with a saline phosphate buffer and lysed with reporter lysis buffer (Promega). Soluble extracts were harvested and assayed for luciferase and β-galactosidase activities. All transfections were repeated at least 3 times using different plasmid preparations and gave similar results. The pMITF wild-type and mutants, pDCT, pTYR, and pCRE constructs used were described previously (26, 43, 59).

For the next assay, the system named is DCT promoter. Nature of the assay: Luciferase assay of DCT promoter in HeLa cells. Format: cell-based, human. The note with it: forskolin (data not shown). As for the experimental part: as §3
The test system of assay [4] is SOX9. Kind of assay: SOX9 mRNA expression in normal human melanocytes by RT-PCR. Format: cell-based. The note with it: n-MP NHM, 4 h after ASP treatment. The text has this: Total RNA was reverse-transcribed using SuperScript III (Invitrogen). PCR reactions consisted of 25 cycles for β-actin and 35 cycles for SOX9 using Taq DNA polymerase (Invitrogen). PCR products for β-actin and SOX9 were 838 bp, and 288 bp, respectively, and were electrophoresed in parallel with DNA molecular mass markers (Invitrogen). Oligonucleotide primers used for PCR were based on mRNA sequences as follows: human SOX9 sense primer 5′-[…]-3′ (SEQ ID NO:5); human SOX9 antisense primer 5′-[…]-3′ (SEQ ID NO:6), β-actin sense primer 5′-[…]-3′ (SEQ ID NO:7); β-actin antisense primer 5′-[…]-3′ (SEQ ID NO:8). Each experiment was repeated at least in triplicate independently.

Assay [5] has as its system mouse melanocytes, melanoma cells, NHM. The note with it: literature (38-40); cited from earlier work.
Setting [6] is: NHM, 21 mJ/cm^2 UVB, pretreatment with H89.

`O=S(=O)(NCCNC/C=C/c1ccc(Br)cc1)c1cccc2cnccc12` [H89]: in the assay with SOX9 [1] (setting [6]), the “UVB-induced expression of SOX9” value is on record as “prevented the increased expression” and the “UVB-induced expression of SOX9 phosphorylated at serine 181” value was “prevented the increased expression”.

Turning to `CCCCC[C@H](O)/C=C/[C@H]1C(=O)C[C@H](O)[C@@H]1C/C=C\CCCC(=O)O` [PGD2, prostaglandin D2], the “SOX9 activity in chondrocytes” value in the assay with SOX9 [2] is listed as “increase SOX9 activity”. Further, the SOX9 expression entry in the assay with SOX9 [3] is reported as “increased”. In addition, in the assay on melanoma cells, the “proliferation of melanoma cells and other cancer cells” value was “decrease the proliferation”. In the assay on PRAME, the PRAME expression entry is recorded as “decreased”. Moreover, in the assay on A375 cells (PGD2 0.5 μg/μl alone), the “proliferation of A375 cells” value is given as “inhibited”.

Take `CC1=C(/C=C/C(C)=C/C=C/C(C)=C/C(=O)O)C(C)(C)CCC1` [RA, retinoic acid]: the “proliferation of A375 cells” value with A375 cells (RA 10^−7 M alone) is reported as “no effect”.

`C=C[C@@]1(C)CC(=O)[C@]2(O)[C@@]3(C)[C@@H](O)CCC(C)(C)[C@@H]3[C@H](O)[C@H](OC(C)=O)[C@@]2(C)O1` [forskolin]: the TYR promoter activity entry with TYR promoter is reported as “no effect”. In addition, the DCT promoter activity entry with DCT promoter was “no effect”.

Consider Δ2-PGJ2, for which the “proliferation of melanoma cells and other cancer cells” value with melanoma cells was “decrease the proliferation”.

As for αMSH, in the assay with SOX9 [1], the “SOX9 regulation in human melanocytes” value was “up-regulated”.

B1: ASP: recombinant mouse protein, antagonist of the melanocortin I receptor (MC1R) (protein, UniProt Q03288 23-131, looked up)
Agouti-signaling protein: HLALEETLGDDRSLRSNSSMNSLDFSSVSIVALNKKSKKISRKEAEKRKRSSKKKASMKKVARPPPPSPCVATRDSCKPPAPACCDPCASCQCRFFGSACTCRVLNPNC
As to B1, the “SOX9 expression (immunoblotting)” value in the assay with SOX9 [1] (n-MP NHM treated 48 h with ASP) was “significantly decreased”. The “SOX9 regulation in human melanocytes” value with SOX9 [1] was “down-regulated”. For the same molecule, the “expression level of SOX9 (RT-PCR)” value in the assay on SOX9 [4] is “decreased”. Besides, the melanin formation entry in assay [5] is on record as “inhibits melanin formation”.
